Reference: PMC9413514, “Accessing Lipophilicity and Biomimetic Chromatography Profile of Biologically Active Ingredients of Botanicals Used in the Treatment of Inflammatory Bowel Disease” (Pharmaceuticals, 2022)

What was measured:
[1] = C18-TLC assay (hydrophobicity); assay type: physicochemical; settings: for RM0 (TLC hydrophobicity index, intercept of linear equation): RP-18 TLC, PBS pH 7.4/methanol, extrapolated to zero organic modifier; for spot migration in C18-TLC: regardless the percentage of the organic modifier in the mobile phase
Source text: In TLC measurements RF value depends on the chemical structure of analyte and its interaction with stationary and mobile phase. […] As it was expected, with increase in the percentage of organic modifier in the mobile phase the increase in RF values can be seen with accompanied decrease in RM values expressed as RM = log(1/RF - 1). Measured RF values were in the range from 0.1 to 0.7 obtained in a wide range of mobile phase organic modifier concentrations. […] Increasing concentration of the organic modifier in the mobile phase caused a slower decrease in the RM values for less hydrophobic analytes than for more hydrophobic ones. […] Increase in the hydrophobicity within curcuminoids and andrographolides is related to increase in lipophilicity determined by shake-flask method (Table 3). Stock solutions of analytes and calibration standards were prepared by dissolving 10 mg of each solute in 10 mL of methanol and kept at 4 °C. Working solutions were freshly prepared at the beginning of each day by dilution of the stock solutions to 100 μg/mL with methanol for TLC measurements or mobile phase for HPLC measurements. Before use, the samples were sonicated (Elmasonic […]) for 10 min at 25 °C and all working solutions were filtered through 0.2 μm polyethersulfone filters (Obrnuta faza). To protect analytes from photodegradation, the amber glass HPLC vials were used. Analyses were carried out using a commercially available 10 cm x 20 cm RP-18 TLC plates with fluorescent indicator (Merck KGaA). 5 μL of each working solution ([…]) was applied to the plates as 5 mm bends, 10 mm from the lower edge and 15 mm from sides of plates. The mobile phases were prepared by mixing the respective amounts of PBS (20 mM, pH 7.4) and methanol from 50% to 80% of organic solvent in 5% increment. The vertical flat-bottom chamber ([…], Switzerland) with a stainless-steel lid was saturated with mobile phase for 30 min. The plates were developed to a distance of 9 cm at room temperature, dried in the open air for 5 min and visualized under λ = 254 nm UV light (UV Cabinet with Dual Wavelength UV lamp by Camag).

[2] = IAM-HPLC assay (lipophilicity, affinity to phospholipids); assay type: physicochemical
Description: IAM columns provide potential to simulate membrane permeability since the amphiphilic character of phospholipid functional groups plays an important role in IAM retention especially when charged molecules are analysed.
(§1) Stock solutions of analytes and calibration standards were prepared by dissolving 10 mg of each solute in 10 mL of methanol and kept at 4 °C. Working solutions were freshly prepared at the beginning of each day by dilution of the stock solutions to 100 μg/mL with methanol for TLC measurements or mobile phase for HPLC measurements. Before use, the samples were sonicated (Elmasonic XtraTT, Elma Schmidbauer) for 10 min at 25 °C and all working solutions were filtered through 0.2 µm polyethersulfone filters (Obrnuta faza). To protect analytes from photodegradation, the amber glass HPLC vials were used.
C18-HPLC assay was carried out at Agilent HPLC 1100 and Zorbax SB C18 chromatographic column (length 250 mm.6 mm, particle size 5 µm) by Agilent Technologies, while IAM-HPLC assay was conducted using IAM P.C.DD2 chromatographic column (length 50 mm, i.d. 3.0 mm, particle size […]) by Regis Technologies (Morton Grove, IL, USA). Retention data were collected at 25.0 ± 0.1 °C using isocratic method working with mobile phases, mixing the respective amounts of PBS (10 mM, pH 7.4) and methanol from 35% to 80% of organic solvent in 5% increment. Each mobile phase was shaken vigorously and filtrated through membrane filter, no. 66, diameter 47 mm, pore size 0.45 µm by Supelco and degassed by sonication 5 min before use. The injection volume was set at 10 µL, and the measurements were carried out at flow rate 1.0 mL/min. Natrium nitrate solution (0.1 mg/mL in mobile phase) was used as the marker of dead-time. The absorbance of the analytes during a chromatographic run was collected in the spectral range of 200–400 nm, and the detection wavelength for each analyte was the one providing the maximum peak height.

[3] = target: T1, human serum albumin (HSA) (Homo sapiens, UniProt P02768); assay: HSA-HPAC assay (plasma protein binding); assay type: in vitro ADME; settings: Chiralpak-HSA, pH 7.4, 25 °C; spread is RSD in %
T1 construct: purchased ChromTech (Cedex, France) Chiralpak-HSA
Source text: (§2) The gradient retention times obtained by HSA-HPAC and AGP-HPAC assays were standardized using a calibration set of compounds with known percentage of plasma protein binding data and procedure described in our previously published study. […] This verification assured that the protein affinity indices obtained by HPAC assays depict not only unspecific generally lipophilicity-driven interactions, but also highly specific recognition forces responsible of enantioselectivity.
as §1
(§3) The binding of biologically active compounds to the plasma proteins was investigated using affinity chromatographic columns by ChromTech (Cedex, France) containing immobilized human serum albumin (HSA) (Chiralpak-HSA, length 50 mm, i.d. 4.6 mm, particle size 5 µm) and α1-acid glycoprotein (AGP) (Chiralpak-AGP, length 50 mm, i.d. 4.6 mm, particle size 5 µm) and Agilent HPLC 1100 instrument. The 20 mM potassium phosphate buffer with the pH adjusted to 7.4 and iso-propanol were used as mobile phase components A and B. Retention data were collected at 25.0 ± 0.1 °C using gradient program as follows: 0 min/0% B, 6 min/30% B, 15 min/30% B and 20 min/0% B. Injection volume was set at 10 µL and the measurements were carried out at 25.0 ± 0.1 °C with flow rate of 1.5 mL/min. The absorbance of the analytes during a chromatographic run was collected in the spectral range 200–400 nm, and the detection wavelength for each analyte was the one providing the maximum peak height.

[4] = system: α1-acid glycoprotein (AGP); assay: AGP-HPAC assay (plasma protein binding); assay type: in vitro ADME; settings: Chiralpak-AGP, pH 7.4, 25 °C; spread is RSD in %
Source text: as §2, §1, §3

[5] = Miniaturized shake-flask method (n-octanol/PBS pH 7.4) with HPLC analysis; assay type: physicochemical; settings: n-octanol/PBS 20 mM pH 7.4, 25 °C; spread is RSD in %; read-out: log D7.4 ± RSD (%) (n = 3)
Description: Stock solution of biologically active ingredients of botanicals used in IBD treatment were prepared using dimethylsulfoxide in concentration of 2 mg/mL. Working solutions were prepared daily by dilution of the stock solutions with PBS (20 mM, pH 7.4) pre-saturated with n-octanol. Before the injection into the HPLC system all solutions were sonicated for 15 min at room temperature in Elmasonic XtraTT (Elma Schmidbauer, Singen, Germany) and filtered through 0.2 μm polyethersulfone filters (Obrnuta faza, Pazin, Croatia).
The pre-saturated solutions of n-octanol and PBS (20 mM, pH 7.4) were used for determination of logarithm of distribution coefficient (log D7.4). The n-octanol and aqueous phase (mixture 1:1, v/v) were mutually saturated for 24 h in an orbital shaker-incubator ES-20/60 (Biosan, Riga, Latvia) at 100 oscillations per min at 25.0 ± 0.1 °C. The prepared mixture was left resting for at least 12 h in the thermostat at 25.0 ± 0.1 °C to ensure complete separation of the two phases. Until analysis, separated saturated solutions were kept in refrigerator at 4 °C.
Shake-flask procedure was conducted in amber 2 mL HPLC vials. 300 μL of the working solution was added to 1500 μL of n-octanol pre-saturated with PBS. To prevent material loss due to volatilisation, the two-phase system nearly filled the entire volume of the test vessels. All n-octanol–buffer mixtures were first vortexed for 1 min and then shaken for 1 h (150 oscillations per min) at room temperature (25.0 ± 0.1 °C) to reach equilibrium and phase distribution. Afterward, the samples were centrifuged using a Z 326 K tabletop centrifuge (HERMLE Labortechnik, Wehingen, Germany) for 30 min at 4000× g and 25 °C to ensure that possible emulsions were removed.
After equilibration and phase separation, the aqueous phase of all samples was analysed on an Agilent HPLC 1100 (Agilent Technologies, Waldbronn, Germany) with diode array detection. Analysis was conducted with a Zorbax SB C18 column (length 150 mm, i.d. 4.6 mm, particle size 5 μm) by Agilent Technologies. 10 min chromatographic runs were performed at 25.0 ± 0.1 °C in isocratic mode using a methanol/water mixture (60/40, v/v) with addition of 0.1% of formic acid as mobile phase modifier at a flow rate of 1.0 mL/min. The mobile phase was filtered through a membrane filter, no. 66, diameter 47 mm, pore size 0.45 µm (Supelco, Bellefonte, PA, USA). The vials were placed in the rack on the autosampler at 25 °C. The injection volume was 10 µL, with a needle offset of 0.5 mm. To avoid any carryover of the analyte-containing n-octanol phase, the outside of the syringe was subsequently washed in methanol before injection. The absorbance of the analytes during a chromatographic run was collected in the spectral range 200–400 nm, and the detection wavelength for each analyte was the one providing the maximum peak height.

[6] = IAM P.C.DD2 column, PBS pH 7.4/methanol, extrapolated to zero organic modifier

T1 sequence (P02768 25-609): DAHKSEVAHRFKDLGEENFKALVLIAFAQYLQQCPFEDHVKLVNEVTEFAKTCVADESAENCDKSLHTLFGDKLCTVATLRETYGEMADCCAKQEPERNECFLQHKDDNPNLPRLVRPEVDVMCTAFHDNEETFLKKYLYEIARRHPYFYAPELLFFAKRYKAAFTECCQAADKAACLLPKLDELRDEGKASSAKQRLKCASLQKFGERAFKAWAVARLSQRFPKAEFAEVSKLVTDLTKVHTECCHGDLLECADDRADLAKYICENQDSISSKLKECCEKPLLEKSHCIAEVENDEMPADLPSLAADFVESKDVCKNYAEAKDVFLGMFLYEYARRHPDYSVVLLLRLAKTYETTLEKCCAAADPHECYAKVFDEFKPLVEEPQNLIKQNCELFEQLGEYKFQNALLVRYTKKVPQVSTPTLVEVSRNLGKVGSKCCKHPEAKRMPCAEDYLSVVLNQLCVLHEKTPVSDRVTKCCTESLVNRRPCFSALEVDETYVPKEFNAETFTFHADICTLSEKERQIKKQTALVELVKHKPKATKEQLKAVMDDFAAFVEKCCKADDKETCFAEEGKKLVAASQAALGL

Row | SMILES | RM0 (TLC hydrophobicity index, intercept of linear equation) [1] | Δ RM0 (increase compared to 11-keto-β-boswellic acid) ([1]; compared to 11-keto-β-boswellic acid) [units] | logk0 IAM (HPLC lipophilicity index, intercept of linear equation) ([2]; pH 7.4) | HSA Binding ± RSD (%) (n = 3) [3] | AGP Binding ± RSD (%) (n = 3) [4] | logk0 IAM (HPLC lipophilicity index, intercept of linear equation) [2, 6] | logD at 1 h [5] | spot migration in C18-TLC [1]
1 | CC1CCC2(C)CCC3(C)C(=CC(=O)C4C5(C)CCC(O)C(C)(C(=O)O)C5CCC43C)C2C1C (stereo not drawn) [11-Keto-β-boswellic Acid, 11-keto-β-boswellic acid] | y = −0.0564 x + 5.3756 |  |  | 98.09 ± 0.02 | 79.01 ± 0.20 | y = −0.0570 x + 4.9194 |  | 
2 | COc1cc(/C=C/C(=O)CC(=O)/C=C/c2ccc(O)c(OC)c2)ccc1O [Curcumin, curcumin] |  |  |  | 97.52 ± 0.20 | 83.07 ± 1.10 |  | 1.94 | 
3 | CC1(C)CCC2(C)CCC3(C)C(=CCC4C5(C)CCC(O)C(C)(C(=O)O)C5CCC43C)C2C1 (stereo not drawn) [α-Boswellic Acid, α-boswellic acid] |  |  |  | 98.94 ± 0.35 | 89.22 ± 0.30 | y = −0.0788 x + 6.3109 |  | no spot migration was observed

The remaining lines, values ahead:

Row | RM0 (TLC hydrophobicity index, intercept of linear equation) [1] | Δ RM0 (increase compared to 11-keto-β-boswellic acid) ([1]; compared to 11-keto-β-boswellic acid) [units] | logk0 IAM (HPLC lipophilicity index, intercept of linear equation) ([2]; pH 7.4) | HSA Binding ± RSD (%) (n = 3) [3] | AGP Binding ± RSD (%) (n = 3) [4] | logk0 IAM (HPLC lipophilicity index, intercept of linear equation) [2, 6] | logD at 1 h [5] | spot migration in C18-TLC [1] | SMILES
4 | y = −0.0722 x + 6.9059 | 1.53 | y = −0.0703 x + 5.1157 | 99.83 ± 0.47 | 83.10 ± 0.37 |  |  |  | CC(=O)O[C@@H]1CC[C@@]2(C)[C@@H](CC[C@]3(C)[C@@H]2C(=O)C=C2[C@@H]4[C@@H](C)[C@H](C)CC[C@]4(C)CC[C@]23C)[C@@]1(C)C(=O)O [3-Acetyl-11-keto-β-boswellic Acid, 3-acetyl-11-keto-β-boswellic acid]
5 |  |  | y = −0.0816 x + 6.5157 | 99.79 ± 0.30 | 89.15 ± 2.04 |  |  | no spot migration was observed | C[C@H]1[C@H](C)CC[C@]2(C)CC[C@]3(C)C(=CC[C@@H]4[C@@]5(C)CC[C@@H](O)[C@](C)(C(=O)O)[C@@H]5CC[C@]43C)[C@H]12 [β-Boswellic Acid, β-boswellic acid]
